The results in this text go back to US20090264420A1, “ORGANIC COMPOUNDS” (priority 2006, published 2009).

The structures appear in SMILES notation.

For one experiment, the target named is T1, aldosterone synthase (Homo sapiens, UniProt P19099).
T1 construct: host or cells: NCI-H295R
T1 sequence (P19099 25-503): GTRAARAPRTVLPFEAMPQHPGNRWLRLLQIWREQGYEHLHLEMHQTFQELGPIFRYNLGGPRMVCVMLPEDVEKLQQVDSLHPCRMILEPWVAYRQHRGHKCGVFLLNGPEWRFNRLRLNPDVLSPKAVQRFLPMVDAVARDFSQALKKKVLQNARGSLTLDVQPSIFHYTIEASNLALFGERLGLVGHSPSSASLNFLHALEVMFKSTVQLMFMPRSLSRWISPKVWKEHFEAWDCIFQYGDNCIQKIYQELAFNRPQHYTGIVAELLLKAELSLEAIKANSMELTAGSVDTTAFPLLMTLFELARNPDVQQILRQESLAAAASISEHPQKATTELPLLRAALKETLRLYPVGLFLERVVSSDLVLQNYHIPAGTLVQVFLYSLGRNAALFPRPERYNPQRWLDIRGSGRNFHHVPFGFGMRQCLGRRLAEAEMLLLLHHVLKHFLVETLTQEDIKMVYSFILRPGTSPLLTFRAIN
The experiment can be described thus: Aldosterone production in Ang II-stimulated NCI-H295R cells (aldosterone synthase inhibition). The class given is cell-based. The settings on record: AS: aldosterone synthase. From the text: (§1) Human adrenocortical carcinoma NCI-H295R cell line is obtained from American Type Culture Collection (Manassas, Va.). Insulin/transferrin/selenium (ITS)-A supplement (100×), DMEM/F-12, antibiotic/antimycotic (100×), and fetal calf serum (FCS) are purchased from Gibco (Grand Island, N.Y.). Anti-mouse PVT scintillation proximity assay (SPA) beads and NBS 96-well plates are obtained from Amersham (Piscataway, N.J.) and Corning (Acton, Mass.), respectively. Solid black 96-well flat bottom plates are purchased from Costar (Corning, N.Y.). Aldosterone and angiotensin (Ang II) are purchased from Sigma (St. Louis, Mo.). D-[1,2,6,7^−3H(N)]aldosterone was acquired from PerkinElmer (Boston, Mass.). Nu-serum was a product of BD Biosciences (Franklin Lakes, N.J.). The NADPH regenerating system, dibenzylfluorescein (DBF), and human aromatase Supersomes® are obtained from Gentest (Woburn, Mass.).
For in vitro measurement of aldosterone activity, human adrenocortical carcinoma NCI-H295R cells are seeded in NBS 96-well plates at a density of 25,000 cells/well in 100 μl′ of a growth medium containing DMEM/F12 supplemented with 10% FCS, 2.5% Nu-serum, 1 μg ITS/ml, and 1× antibiotic/antimycotic. The medium is changed after culturing for 3 days at 37° C. under an atmosphere of 5% CO2/95% air. On the following day, cells are rinsed with 100 μl of DMEM/F12 and incubated with 100 μl of treatment medium containing 1 μM Ang II and a compound at different concentrations in quadruplicate wells at 37° C. for 24 hr. At the end of incubation, 50 μl of medium is withdrawn from each well for measurement of aldosterone production by an RIA using mouse anti-aldosterone monoclonal antibodies.
Measurement of aldosterone activity can also be performed using, a 96-well plate format. Each test sample is incubated with 0.02 μCi of D-[1,2,6,7-^3H(N)]aldosterone and 0.3 μg of anti-aldosterone antibody in phosphate-buffered saline (PBS) containing 0.1% Triton X-100, 0.1% bovine serum albumin, and 12% glycerol in a total volume of 200 μl at room temperature for 1 hr. Anti-mouse PVT SPA beads (50 μl) are then added to each well and incubated overnight at room temperature prior to counting in a Microbeta plate counter. The amount of aldosterone in each sample is calculated by comparing with a standard curve generated using known quantities of the hormone.
(§2) Full concentration-response curves of the test compound are performed at least 3 times. The IC50 values are derived using a non-linear least squares curve-fitting program from Microsoft XLfit.

The next experiment has as its target T2, human aromatase (Homo sapiens, UniProt P11511).
T2 construct: purchased Gentest (Woburn, Mass.)
T2 sequence (P11511 1-503): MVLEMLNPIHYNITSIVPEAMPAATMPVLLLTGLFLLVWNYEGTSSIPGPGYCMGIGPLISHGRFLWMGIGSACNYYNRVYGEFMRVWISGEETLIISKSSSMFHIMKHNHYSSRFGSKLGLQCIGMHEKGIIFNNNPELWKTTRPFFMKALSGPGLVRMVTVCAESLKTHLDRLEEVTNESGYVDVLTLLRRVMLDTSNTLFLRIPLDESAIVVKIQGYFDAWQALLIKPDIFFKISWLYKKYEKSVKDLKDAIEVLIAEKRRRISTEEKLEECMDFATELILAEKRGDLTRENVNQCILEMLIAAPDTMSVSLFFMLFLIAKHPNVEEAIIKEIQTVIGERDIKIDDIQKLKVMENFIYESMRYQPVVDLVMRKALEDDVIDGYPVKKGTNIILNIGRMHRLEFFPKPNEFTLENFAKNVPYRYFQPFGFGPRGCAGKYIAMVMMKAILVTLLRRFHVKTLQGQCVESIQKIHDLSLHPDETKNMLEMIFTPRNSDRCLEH
The experiment can be described thus: Human aromatase assay with dibenzylfluorescein substrate (fluorescence). It is filed as biochemical. The note with it: 1.5 h; percentage of inhibitory rate at 10 μM; ARO: Aromatase; read-out: ARO % I @ 10 μM.
Excerpt: as §1
To measure aromatase activity, the human aromatase assay is performed in 96-well flat bottom plates according to a published protocol (Stresser et al, 2000) with minor modifications. Briefly, 10 μl, of an NADPH regenerating system containing 2.6 mM NADP^+, 6.6 mM glucose 6-phosphate, 6.6 mM MgCl2, and 0.8 U/ml glucose-6-phosphate dehydrogenase in 50 mM potassium phosphate, pH 7.4, is pre-incubated with the test compound at a desired concentration at 30° C. for 10 min in a total volume of 100 μl. Afterwards, 4 pmol of human aromatase, 20 μg of control microsomal protein, and 4 μM DBF in 100 μl of 50 mM potassium phosphate, pH 7.4, is added to each well and incubated at 30° C. for 90 min. The reaction is terminated by the addition of 75 μl of 2 N NaOH to each well. After 2 hr, the product, fluorescein, is measured by a fluorimeter using excitation and emission wavelengths of 485 and 538 nm, respectively.
as §2

Another experiment deals with T3, CYP11B1 (Homo sapiens, UniProt P15538).
T3 construct: Thus, the NCI-H295R cells have Cyp 11 B1 (steroid 11 p-hydroxylase); host or cells: NCI-H295R
T3 sequence (P15538 25-503): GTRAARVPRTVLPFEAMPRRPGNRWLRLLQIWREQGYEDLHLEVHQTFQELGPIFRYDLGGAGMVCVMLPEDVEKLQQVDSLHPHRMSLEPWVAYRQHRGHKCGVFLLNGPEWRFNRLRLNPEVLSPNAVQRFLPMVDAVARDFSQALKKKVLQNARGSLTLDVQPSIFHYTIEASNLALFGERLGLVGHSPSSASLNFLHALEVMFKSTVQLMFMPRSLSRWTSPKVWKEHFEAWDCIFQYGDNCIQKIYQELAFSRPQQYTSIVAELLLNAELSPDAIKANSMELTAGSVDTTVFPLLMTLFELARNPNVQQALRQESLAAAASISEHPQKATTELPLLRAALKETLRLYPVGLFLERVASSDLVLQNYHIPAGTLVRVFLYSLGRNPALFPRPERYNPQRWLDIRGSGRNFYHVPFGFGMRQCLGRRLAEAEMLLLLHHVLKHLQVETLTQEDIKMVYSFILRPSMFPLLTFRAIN
The experiment can be described thus: CYP11B1 inhibition in NCI-H295R cells (steroid release by radioimmunoassay). It is filed as cell-based. The note with it: percentage of inhibitory rate at 100 nM; 11B1: CYP11B1. An excerpt:
The in vitro inhibitory activities for CYP 11 B1 can be determined by the following assay.
The cell line NCI-H295R was originally isolated from an adrenocortical carcinoma and has been characterized in the literature through the stimulable secretion of steroid hormones and the presence of the enymes essential for steroidogenesis. Thus, the NCI-H295R cells have Cyp 11 B1 (steroid 11 p-hydroxylase). The cells show the physiological property of zonally undifferentiated human foetal adrenocortical cells which, however, have the capacity to produce the steroid hormones which are formed in the three, phenotypically distinguishable zones in the adult adrenal, cortex.
The NCI-H295R cells (American Type Culture Collection, ATCC, Rockville, Md., USA) are grown in Dulbeoco's Modified Eagle Ham F-12 Medium (DME/F12), which has been I supplemented with Ulroser SF Serum (Soprachem, Cergy-Saint-Christophe, France), insulin, transferrin, selenite (1-T-S, Becton Dickinson Biosiences, Franklin lakes, NJ, USA) and antibiotics in 75 cm^2 cell culture vessels at 37° C. and in a 95% air-5% carbon dioxide atmosphere. The cells are subsequently transferred for colony formation into a 24-well incubation vessel. They are cultivated there in DME/F12 medium, which is now supplemented with 0.1% bovine serum instead of Ultroser SF for 24 hours. The experiment is initiated by cultivating the cells in DME/F12 medium which is supplemented with 0.1% bovine serum albumin and test compound, in the presence or absence of cell stimulants, for 72 hours. The test substance is added in a concentration range from 0.2 nanomolar to […]. […]
The excretion of aldosterone, cortisol, corticosterone and estradiol/estrone into the culture medium can be detected and quantified by commercially available; specific monoclonal antibodies in radioimmunoassays in accordance with the manufacturer's instructions.
Inhibition of the release of certain steroids can be used as a measure of the respective enzyme inhibition by the added test compounds. The dose-dependent inhibition of enzymic activity by a compound is calculated by means of an inhibition plot which is characterized by an IC50.
The IC50 values for active test compounds are ascertained by a simple linear regression analysis in order to construct inhibition plots without data weighting. The inhibition plot is calculated by fting a 4-parameter logistic function to the raw data points using the least squares method. The equation of the 4-parameter logistic function is calculated as follows: Y=(d−a)/((1+(x/c)b))+aI where: a=minimum data level b gradient I c=ICED d=maximum data level x=inhibitor concentration.

With `CCC(C)(C)C1C(=O)N(CC2CCOCC2)Cc2cncn21` (single isomer, unassigned) [Compound 10, 5-(1,1-Dimethyl-propyl)-7-(tetrahydro-pyran-4-ylmethyl)-7,8-dihydro-imidazo[5-a]pyrazin-6-one], on aldosterone synthase, the IC50 (as a rule, the midpoint of a concentration-inhibition curve) is 190 nM. This counts as sub-micromolar.
`CCC1(C(C)(C)C)C(=O)N(Cc2ccc(F)cc2)Cc2cncn21` (single isomer, unassigned) [Compound 1, 5-tert-Butyl-5-ethyl-7-(4-fluoro-benzyl)-7,8-dihydro-imidazo[1,5-a]pyrazin-6-one]: on human aromatase, the inhibition at 10 µM is 18%. Also, the IC50 against aldosterone synthase was 139 nM.
In the case of `CC(C)C1C(=O)N(Cc2cccc(F)c2)Cc2cncn21` (single isomer, unassigned) [Compound 9, 7-(3-Fluoro-benzyl)-5-isopropyl-7,8-dihydro-imidazo[1,5-a]pyrazin-6-one], the inhibition at 10 µM on human aromatase amounted to 94%. On aldosterone synthase, this compound showed an IC50 of 231 nM.
As for `CCC(C)(C)C1C(=O)N(CC2CCCCC2)Cc2cncn21` (single isomer, unassigned) [Compound 7, 7-Cyclohexylmethyl-5 (1,1-dimethyl-propyl)-7,8-dihydro-imidazo[1,5-a]pyrazin-6-one], at human aromatase, the inhibition at 10 µM was 50%. In addition, half-maximal inhibition against aldosterone synthase (IC50) required 7 nM.
With `O=C1N(Cc2ccc(F)cc2)Cc2cncn2C12CCCCC2` [Compound 4, 7′-(4-fluorobenzyl)-7′,8′-dihydro-6′H-spiro[cyclohexane-1,5′-imidazole[1,5-a]pyrazin]-6-one], the “11B1 % I @ 100 nM” value on CYP11B1 is listed as 99%. The compound further displayed an IC50 at aldosterone synthase of 73 nM.
As to `O=C1C(C2CCC2)n2cncc2CN1Cc1ccc(F)cc1` (single isomer, unassigned) [Compound 5, 5-Cyclobutyl-7-(4-fluoro-benzyl)-7,8-dihydro-imidazo[1,5-a]pyrazin-6-one], the inhibition at 10 µM on human aromatase stood at 93%. The compound further came in with a 50% inhibitory concentration (IC50) at aldosterone synthase of 18 nM.
In the case of `O=C1C(C2CCC2)n2cncc2CCN1Cc1ccc(F)cc1` (single isomer, unassigned) [Compound 11, 4-Cyclobutyl-6-(4-fluoro-benzyl)-7,8-dihydro-6H-2,3a,6-triaza-azulen-5-one], the inhibition at 10 µM at human aromatase was 99%. The IC50 against aldosterone synthase was 197 nM.
With `CC(C)C1C(=O)N(CC2CCCCC2)Cc2cncn21` (single isomer, unassigned) [Compound 3, 7-Cyclohexylmethyl-5-isopropyl-7,8-dihydro-imidazo[5-a]pyrazin-6-one], the inhibition at 10 µM at human aromatase came out at 48%. The same compound returned an IC50 against aldosterone synthase of 11 nM.
